As usually defined, the TD50 is the dose at which the toxic effect under study appears in half of the subjects.

The values below come from PubChem BioAssay AID1745844 (Carcinogenic Potency Database (CPDB), 2022).

Active and inactive are the calls of the source. No rule for the calls is given here.

The test system of the data set is rodent lifetime carcinogenesis bioassay, tumor incidence TD50. In words: chronic cancer bioassays in animals – CPDB, compiled studies (AID 1745844).

On to `O=C1c2ccccc2C(=O)N1SC(Cl)(Cl)Cl`, for which the carcinogen call was “negative (inactive)” (mouse, strain B6AKF1, females, oral dosing, site: any site (literature study), lesion: several types, types named in the paper, dosed 76 weeks, study length 76 weeks); “negative (inactive)” (mouse, strain B6AKF1, females, oral dosing, site: liver, lesion: hepatoma, dosed 76 weeks, study length 76 weeks); “negative (inactive)” (mouse, strain B6AKF1, females, oral dosing, site: lung, lesion: adenoma, dosed 76 weeks, study length 76 weeks); “negative (inactive)” (mouse, strain B6AKF1, males, oral dosing, site: any site (literature study), lesion: several types, types named in the paper, dosed 76 weeks, study length 76 weeks); “negative (inactive)” (mouse, strain B6AKF1, males, oral dosing, site: lung, lesion: adenoma, dosed 76 weeks, study length 76 weeks); “negative (inactive)” (mouse, strain B6C3F1, females, oral dosing, site: liver, lesion: hepatoma, dosed 76 weeks, study length 76 weeks). Also, the carcinogen call (mouse, strain B6C3F1, females, oral dosing, site: lung, lesion: several types, types named in the paper, dosed 76 weeks, study length 76 weeks) was “negative (inactive)”. Further, the TD50 is 8230 mg/kg/day (inactive) (mouse, strain B6AKF1, males, oral dosing, site: liver, lesion: hepatoma, dosed 76 weeks, study length 76 weeks); 2200 mg/kg/day (mouse, strain B6C3F1, females, in feed, site: all sites, lesion: malignant lymphoma, dosed 104 weeks, study length 104 weeks); 2090 mg/kg/day (mouse, strain B6C3F1, females, in feed, site: duodenum, lesion: adenocarcinoma, dosed 104 weeks, study length 104 weeks); 29200 mg/kg/day (mouse, strain B6C3F1, females, in feed, site: duodenum, lesion: adenoma, dosed 104 weeks, study length 104 weeks); 1670 mg/kg/day (mouse, strain B6C3F1, females, in feed, site: duodenum, lesion: several types, types named in the paper, dosed 104 weeks, study length 104 weeks); 18900 mg/kg/day (mouse, strain B6C3F1, females, in feed, site: liver, lesion: several types, types named in the paper, dosed 104 weeks, study length 104 weeks). Moreover, the TD50 is, setting by setting: (mouse, strain B6C3F1, females, in feed, site: stomach, nonglandular, lesion: several types, types named in the paper, dosed 104 weeks, study length 104 weeks) 6000 mg/kg/day; (mouse, strain B6C3F1, females, in feed, site: stomach, nonglandular, lesion: squamous-cell papilloma, dosed 104 weeks, study length 104 weeks) 5780 mg/kg/day; (mouse, strain B6C3F1, females, oral dosing, site: any site (literature study), lesion: several types, types named in the paper, dosed 76 weeks, study length 76 weeks) 260 mg/kg/day (inactive); (mouse, strain B6C3F1, males, in feed, site: duodenum, lesion: adenocarcinoma, dosed 104 weeks, study length 104 weeks) 981 mg/kg/day; (mouse, strain B6C3F1, males, in feed, site: duodenum, lesion: adenoma, dosed 104 weeks, study length 104 weeks) 23000 mg/kg/day; (mouse, strain B6C3F1, males, in feed, site: duodenum, lesion: several types, types named in the paper, dosed 104 weeks, study length 104 weeks) 899 mg/kg/day. The TD50 by setting is: (mouse, strain B6C3F1, males, in feed, site: stomach, nonglandular, lesion: several types, types named in the paper, dosed 104 weeks, study length 104 weeks) 5460 mg/kg/day; (mouse, strain B6C3F1, males, in feed, site: stomach, nonglandular, lesion: squamous-cell carcinoma, dosed 104 weeks, study length 104 weeks) 13100 mg/kg/day; (mouse, strain B6C3F1, males, in feed, site: stomach, nonglandular, lesion: squamous-cell papilloma, dosed 104 weeks, study length 104 weeks) 12900 mg/kg/day; (mouse, strain B6C3F1, males, oral dosing, site: any site (literature study), lesion: several types, types named in the paper, dosed 76 weeks, study length 76 weeks) 87.7 mg/kg/day (inactive); (mouse, strain B6C3F1, males, oral dosing, site: liver, lesion: hepatoma, dosed 76 weeks, study length 76 weeks) 242 mg/kg/day (inactive); (mouse, strain B6C3F1, males, oral dosing, site: lung, lesion: adenoma, dosed 76 weeks, study length 76 weeks) 156 mg/kg/day (inactive). The TD50 reads like this: (mouse, strain Charles River CD1, females, in feed, site: digestive tract, lesion: several types, types named in the paper, dosed 112 weeks, study length 112 weeks) 2380 mg/kg/day; (mouse, strain Charles River CD1, females, in feed, site: duodenum, lesion: adenocarcinoma, dosed 112 weeks, study length 112 weeks) 3310 mg/kg/day; (mouse, strain Charles River CD1, females, in feed, site: duodenum, lesion: adenoma, dosed 112 weeks, study length 112 weeks) 7280 mg/kg/day; (mouse, strain Charles River CD1, males, in feed, site: digestive tract, lesion: several types, types named in the paper, dosed 112 weeks, study length 112 weeks) 2190 mg/kg/day; (mouse, strain Charles River CD1, males, in feed, site: duodenum, lesion: adenocarcinoma, dosed 112 weeks, study length 112 weeks) 2400 mg/kg/day; (mouse, strain Charles River CD1, males, in feed, site: duodenum, lesion: adenoma, dosed 112 weeks, study length 112 weeks) 10300 mg/kg/day. The TD50 runs as follows: (mouse, strain Charles River CD1, males, in feed, site: stomach, nonglandular, lesion: papilloma, dosed 112 weeks, study length 112 weeks) 13400 mg/kg/day; (rat, strain Charles River CD (Sprague-Dawley), males, in feed, site: testis, lesion: interstitial-cell tumor, dosed 104 weeks, study length 104 weeks) 839 mg/kg/day; (rat, strain Charles River CD (Sprague-Dawley), males, in feed, site: thyroid gland, lesion: several types, types named in the paper, dosed 104 weeks, study length 104 weeks) 2940 mg/kg/day; (rat, strain Fischer 344, females, in feed, site: all sites, lesion: malignant lymphoma, dosed 104 weeks, study length 104 weeks) 947 mg/kg/day; (rat, strain Fischer 344, males, in feed, site: all sites, lesion: malignant lymphoma, dosed 104 weeks, study length 104 weeks) 1070 mg/kg/day.
Regarding `CC(C)(Oc1ccc(C2CC2(Cl)Cl)cc1)C(=O)O` (stereo not given), the TD50 is, setting by setting: (mouse, strain C57BL/6N, males, in feed, site: liver, lesion: hepatocellular adenoma, dosed 78 weeks, study length 78 weeks) 5.89 mg/kg/day; (mouse, strain C57BL/6N, males, in feed, site: liver, lesion: hepatocellular adenoma, dosed 89 weeks, study length 91 weeks) 19.2 mg/kg/day; (mouse, strain C57BL/6N, males, in feed, site: liver, lesion: hepatocellular carcinoma, dosed 78 weeks, study length 78 weeks) 12.3 mg/kg/day; (mouse, strain C57BL/6N, males, in feed, site: liver, lesion: hepatocellular carcinoma, dosed 89 weeks, study length 91 weeks) 46.4 mg/kg/day; (mouse, strain C57BL/6N, males, in feed, site: liver, lesion: several types, types named in the paper, dosed 78 weeks, study length 78 weeks) 4.17 mg/kg/day; (mouse, strain C57BL/6N, males, in feed, site: liver, lesion: several types, types named in the paper, dosed 89 weeks, study length 91 weeks) 12.1 mg/kg/day. Further, the TD50 was 531 mg/kg/day (rat, strain Fischer 344, females, in feed, site: stomach, glandular, lesion: carcinoid tumor, malignant, dosed 104 weeks, study length 104 weeks) and 103 mg/kg/day (rat, strain Fischer 344, males, in feed, site: stomach, glandular, lesion: carcinoid tumor, malignant, dosed 104 weeks, study length 104 weeks). In addition, the carcinogen call was “positive” (rat, strain Fischer 344, males, in feed, site: liver, lesion: hepatocellular carcinoma, dosed 60 weeks, study length 60 weeks); “positive” (rat, strain Fischer 344, males, in feed, site: liver, lesion: neoplastic nodule, dosed 60 weeks, study length 60 weeks); “positive” (rat, strain Fischer 344, males, in feed, site: liver, lesion: several types, types named in the paper, dosed 60 weeks, study length 60 weeks); “positive” (rat, strain Fischer 344, males, in feed, site: liver, lesion: several types, types named in the paper, dosed 95 weeks, study length 95 weeks); “negative (inactive)” (rat, strain Fischer 344, males, in feed, site: testis, lesion: Leydig-cell tumor, dosed 95 weeks, study length 95 weeks).
`Cc1ccc2c(c1N)C(=O)c1ccccc1C2=O`: the TD50 was 174 mg/kg/day (mouse, strain B6C3F1, females, in feed, site: liver, lesion: hepatocellular adenoma + hepatocellular carcinoma + neoplastic nodule, dosed 70 weeks, study length 97 weeks); 174 mg/kg/day (mouse, strain B6C3F1, females, in feed, site: liver, lesion: hepatocellular carcinoma + neoplastic nodule, dosed 70 weeks, study length 97 weeks); 115 mg/kg/day (rat, strain Fischer 344, females, in feed, site: liver, lesion: hepatocellular adenoma + hepatocellular carcinoma + neoplastic nodule, dosed 78 weeks, study length 104 weeks); 115 mg/kg/day (rat, strain Fischer 344, females, in feed, site: liver, lesion: hepatocellular carcinoma + neoplastic nodule, dosed 78 weeks, study length 104 weeks); 182 mg/kg/day (rat, strain Fischer 344, females, in feed, site: liver, lesion: hepatocellular carcinoma, dosed 78 weeks, study length 104 weeks); 64.4 mg/kg/day (rat, strain Fischer 344, males, in feed, site: any site (literature study), lesion: several types, types named in the paper, dosed 78 weeks, study length 104 weeks). For the same compound, the TD50 is 34.1 mg/kg/day (rat, strain Fischer 344, males, in feed, site: kidney + liver, lesion: adenocarcinoma, NOS + tubular-cell adenoma + tubular-cell adenocarcinoma + hepatocellular carcinoma + neoplastic nodule, dosed 78 weeks, study length 104 weeks); 441 mg/kg/day (rat, strain Fischer 344, males, in feed, site: kidney, lesion: adenocarcinoma, NOS + tubular-cell adenocarcinoma, dosed 78 weeks, study length 104 weeks); 131 mg/kg/day (rat, strain Fischer 344, males, in feed, site: kidney, lesion: adenocarcinoma, NOS + tubular-cell adenoma + tubular-cell adenocarcinoma, dosed 78 weeks, study length 104 weeks); 196 mg/kg/day (rat, strain Fischer 344, males, in feed, site: kidney, lesion: tubular-cell adenoma, dosed 78 weeks, study length 104 weeks); 39.9 mg/kg/day (rat, strain Fischer 344, males, in feed, site: liver, lesion: hepatocellular adenoma + hepatocellular carcinoma + neoplastic nodule, dosed 78 weeks, study length 104 weeks); 39.9 mg/kg/day (rat, strain Fischer 344, males, in feed, site: liver, lesion: hepatocellular carcinoma + neoplastic nodule, dosed 78 weeks, study length 104 weeks). Also, the TD50 is 150 mg/kg/day (rat, strain Fischer 344, males, in feed, site: liver, lesion: hepatocellular carcinoma, dosed 78 weeks, study length 104 weeks); 136 mg/kg/day (rat, strain Fischer 344, males, in feed, site: pituitary gland, lesion: adenoma, NOS + chromophobe adenoma, dosed 78 weeks, study length 104 weeks); 283 mg/kg/day (rat, strain Fischer 344, males, in feed, site: thyroid gland, lesion: c-cell adenoma + c-cell carcinoma, dosed 78 weeks, study length 104 weeks). In addition, the carcinogen call (mouse, strain B6C3F1, males, in feed, site: any site (literature study), lesion: several types, types named in the paper, dosed 70 weeks, study length 97 weeks) is “negative (inactive)”.
